Patent publication US6350812B1, “Hydrogels containing triblock copolymers, and preparation and use thereof” (Centre National de la Recherche Scientifique (CNRS), priority 1995, dated 2002)

Columns and labels:
[1] = as described for the commercial colorant; cited from earlier work
[2] = Incorporation and retention of a hydrophobic substance in the hydrogel on addition of water and washing with water; format: physicochemical; details: acetone solution, water added
Experimental: 1 g of copolymer of Example 1.3 and 5 mg of commercial colorant Yellow OB are dissolved in 2 cm^3 of acetone.
This is a very hydrophobic, water-insoluble colorant. Distilled water (4 cm^3) is gradually added. A gel is obtained which occupies virtually all the volume of the starting acetone solution.
Hydrogels in which progesterone is incorporated were prepared in an analogous way. […] When administered by subcutaneous injection, the gel constitutes a bioresorbable soft implant which gradually releases the progesterone.

Cc1ccccc1N=Nc1c(N)ccc2ccccc12 [Yellow OB]
solubility of the colorant in water [1]: water-insoluble | crystallisation / precipitation of the hydrophobic substance on addition of water or washing [2]: the colorant crystallizes during the addition of water
